PubChem BioAssay (NCI)
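Test compounds were applied to cells in 96-well plates for 48 hours at 5 doses. Abbreviation: GI50, concentration required for 50% inhibition of growth. TGI denotes the concentration required for complete inhibition of growth.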

How the values were obtained:
Assay in all cases: growth of human tumour cells (NCI), 48 h
NCI-H522 lung = system: NCI-H522 lung
NCI/ADR-RES ovarian = system: NCI/ADR-RES ovarian
EKVX NSCLC = system: EKVX NSCLC
CCRF-CEM leukemia = system: CCRF-CEM leukemia
SK-OV-3 ovarian = system: SK-OV-3 ovarian
OVCAR-4 ovarian = system: OVCAR-4 ovarian
A498 renal = system: A498 renal
MCF7 breast = system: MCF7 breast
HOP-62 NSCLC = system: HOP-62 NSCLC
NCI-H226 lung = system: NCI-H226 lung
CAKI-1 renal = system: CAKI-1 renal
HT29 colon = system: HT29 colon
KM12 colon = system: KM12 colon
IGROV1 ovarian = system: IGROV1 ovarian
RXF 393 renal = system: RXF 393 renal
COLO 205 colon = system: COLO 205 colon
MDA-MB-231 breast = system: MDA-MB-231 breast
SF-295 CNS = system: SF-295 CNS
HOP-92 NSCLC = system: HOP-92 NSCLC
SW-620 colon = system: SW-620 colon
HS 578T breast = system: HS 578T breast
MALME-3M melanoma = system: MALME-3M melanoma
NCI-H23 lung = system: NCI-H23 lung
OVCAR-8 ovarian = system: OVCAR-8 ovarian
A549 NSCLC = system: A549 NSCLC
MDA-MB-435 = system: MDA-MB-435
NCI-H460 lung = system: NCI-H460 lung
SK-MEL-2 melanoma = system: SK-MEL-2 melanoma
OVCAR-3 ovarian = system: OVCAR-3 ovarian
PC-3 prostate = system: PC-3 prostate
M14 melanoma = system: M14 melanoma
DU-145 prostate = system: DU-145 prostate
SN12C renal = system: SN12C renal
SK-MEL-5 melanoma = system: SK-MEL-5 melanoma
SK-MEL-28 melanoma = system: SK-MEL-28 melanoma
MOLT-4 leukemia = system: MOLT-4 leukemia
T-47D breast = system: T-47D breast
SF-539 CNS = system: SF-539 CNS
UACC-257 melanoma = system: UACC-257 melanoma
RPMI-8226 leukemia = system: RPMI-8226 leukemia
786-0 renal = system: 786-0 renal
UO-31 renal = system: UO-31 renal
HCC-2998 colon = system: HCC-2998 colon
ACHN renal = system: ACHN renal
U251 CNS = system: U251 CNS
OVCAR-5 ovarian = system: OVCAR-5 ovarian
K-562 leukemia = system: K-562 leukemia
UACC-62 melanoma = system: UACC-62 melanoma
BT-549 breast = system: BT-549 breast
HL-60(TB) leukemia = system: HL-60(TB) leukemia
HCT-15 colon = system: HCT-15 colon
SF-268 CNS = system: SF-268 CNS
HCT-116 colon = system: HCT-116 colon
LOX IMVI melanoma = system: LOX IMVI melanoma
TK-10 renal = system: TK-10 renal

For COc1ccc(-c2cn(C)c3c2-n2cccc2C3=O)cc1O, the GI50 (NCI-H522 lung) was 10.1 µM, the TGI (NCI-H522 lung) was 40.8 µM and the GI50 (NCI/ADR-RES ovarian) was 3.39 µM. The TGI (NCI/ADR-RES ovarian) was 25.3 µM, the GI50 (EKVX NSCLC) was 14.6 µM and the TGI (EKVX NSCLC) was 51.5 µM. It also gave a GI50 (CCRF-CEM leukemia) of 3.66 µM, a TGI (CCRF-CEM leukemia) of 25.4 µM and a GI50 (SK-OV-3 ovarian) of 5.86 µM. For the same molecule, the TGI (SK-OV-3 ovarian) was 94.7 µM, the GI50 (OVCAR-4 ovarian) was 25.6 µM and the TGI (OVCAR-4 ovarian) was over 100 µM. It also gave a GI50 (A498 renal) of 2.82 µM, a TGI (A498 renal) of 9.4 µM and a GI50 (MCF7 breast) of 0.806 µM. For the same molecule, the TGI (MCF7 breast) was 20.3 µM, the GI50 (HOP-62 NSCLC) was 5.93 µM and the TGI (HOP-62 NSCLC) was 29.3 µM. It also gave a GI50 (NCI-H226 lung) of 6.33 µM, a TGI (NCI-H226 lung) of 39.7 µM and a GI50 (CAKI-1 renal) of 2.09 µM. It also gave a TGI (CAKI-1 renal) of 7.77 µM, a GI50 (HT29 colon) of 18 µM and a TGI (HT29 colon) of over 100 µM. It also gave a GI50 (KM12 colon) of 3.71 µM, a TGI (KM12 colon) of 16.4 µM and a GI50 (IGROV1 ovarian) of 26.9 µM. For the same molecule, the TGI (IGROV1 ovarian) was 75.2 µM, the GI50 (RXF 393 renal) was 42.3 µM and the TGI (RXF 393 renal) was 99.4 µM. It also gave a GI50 (COLO 205 colon) of 17.1 µM, a TGI (COLO 205 colon) of 38.8 µM and a GI50 (MDA-MB-231 breast) of 3.65 µM. It also gave a TGI (MDA-MB-231 breast) of 29.8 µM, a GI50 (SF-295 CNS) of 5.22 µM and a TGI (SF-295 CNS) of 21.3 µM. It also gave a GI50 (HOP-92 NSCLC) of 6.8 µM, a TGI (HOP-92 NSCLC) of over 100 µM and a GI50 (SW-620 colon) of 6.9 µM. The TGI (SW-620 colon) was over 100 µM, the GI50 (HS 578T breast) was 0.611 µM and the TGI (HS 578T breast) was 3.9 µM. It also gave a GI50 (MALME-3M melanoma) of 1.77 µM, a TGI (MALME-3M melanoma) of 9.28 µM and a GI50 (NCI-H23 lung) of 3.22 µM. It also gave a TGI (NCI-H23 lung) of 16.5 µM, a GI50 (OVCAR-8 ovarian) of 19.7 µM and a TGI (OVCAR-8 ovarian) of over 100 µM. For the same molecule, the GI50 (A549 NSCLC) was 18.1 µM, the TGI (A549 NSCLC) was 54.1 µM and the GI50 (MDA-MB-435) was 0.893 µM. It also gave a TGI (MDA-MB-435) of 3.91 µM, a GI50 (NCI-H460 lung) of 3.06 µM and a TGI (NCI-H460 lung) of 20 µM. The GI50 (SK-MEL-2 melanoma) was 19.7 µM, the TGI (SK-MEL-2 melanoma) was 55.3 µM and the GI50 (OVCAR-3 ovarian) was 3.39 µM. It also gave a TGI (OVCAR-3 ovarian) of 21.4 µM, a GI50 (PC-3 prostate) of 6.09 µM and a TGI (PC-3 prostate) of over 100 µM. The GI50 (M14 melanoma) was 6.57 µM, the TGI (M14 melanoma) was 20.3 µM and the GI50 (DU-145 prostate) was 12.5 µM. The TGI (DU-145 prostate) was 32.9 µM, the GI50 (SN12C renal) was 10.8 µM and the TGI (SN12C renal) was 41.2 µM. For the same molecule, the GI50 (SK-MEL-5 melanoma) was 1.4 µM, the TGI (SK-MEL-5 melanoma) was 5.93 µM and the GI50 (SK-MEL-28 melanoma) was 11.4 µM. It also gave a TGI (SK-MEL-28 melanoma) of 33.8 µM, a GI50 (MOLT-4 leukemia) of 7.21 µM and a TGI (MOLT-4 leukemia) of 82.2 µM. It also gave a GI50 (T-47D breast) of 4.78 µM, a TGI (T-47D breast) of 28.9 µM and a GI50 (SF-539 CNS) of 1.76 µM. The TGI (SF-539 CNS) was 16.5 µM, the GI50 (UACC-257 melanoma) was 15.9 µM and the TGI (UACC-257 melanoma) was 32.9 µM. It also gave a GI50 (RPMI-8226 leukemia) of 2.05 µM, a TGI (RPMI-8226 leukemia) of 17.5 µM and a GI50 (786-0 renal) of 9.86 µM. The TGI (786-0 renal) was 30.7 µM, the GI50 (UO-31 renal) was 16.1 µM and the TGI (UO-31 renal) was over 100 µM. The GI50 (HCC-2998 colon) was 2.48 µM, the TGI (HCC-2998 colon) was 6.46 µM and the GI50 (ACHN renal) was 5.05 µM. It also gave a TGI (ACHN renal) of 22.5 µM, a GI50 (U251 CNS) of 8.61 µM and a TGI (U251 CNS) of 29.8 µM. For the same molecule, the GI50 (OVCAR-5 ovarian) was 5.74 µM, the TGI (OVCAR-5 ovarian) was 25.2 µM and the GI50 (K-562 leukemia) was 4.3 µM. It also gave a TGI (K-562 leukemia) of over 100 µM, a GI50 (UACC-62 melanoma) of 3.27 µM and a TGI (UACC-62 melanoma) of 12.2 µM. For the same molecule, the GI50 (BT-549 breast) was 3.99 µM, the TGI (BT-549 breast) was 23.2 µM and the GI50 (HL-60(TB) leukemia) was 3.48 µM. The TGI (HL-60(TB) leukemia) was over 100 µM, the GI50 (HCT-15 colon) was 1.86 µM and the TGI (HCT-15 colon) was 9.15 µM. For the same molecule, the GI50 (SF-268 CNS) was 11.4 µM, the TGI (SF-268 CNS) was 50.5 µM and the GI50 (HCT-116 colon) was 11.1 µM. For the same molecule, the TGI (HCT-116 colon) was 26.5 µM, the GI50 (LOX IMVI melanoma) was 3.71 µM and the TGI (LOX IMVI melanoma) was 13.3 µM. For the same molecule, the GI50 (TK-10 renal) was 3.05 µM and the TGI (TK-10 renal) was 8.29 µM.
